Each block holds one molecule with its values, some of them ahead of it.
Assays:
VEGFR2 = VEGFR2 glycosylation in HUVEC (Western blot scoring); type: cell-based, human; details: VEGFR2 hypoglycosylation score in HUVEC, 2 μM, 24 h; note: key: ++: robust; +: intermediate; −: absent
Gli1 transcript = experiment: Quantification of Gli1 transcript by TaqMan analysis in MB cells (Hh pathway); type: cell-based, mouse
Procedure, shortened: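 After drug exposure, total RNA extracted from MB cells, reverse transcribed, and Gli1 quantified by TaqMan qPCR with mouse Gli-1 and actin primer/probe sets. Values expressed as fold induction relative to control by the 2^−ΔΔCt method, normalized to actin.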

HUVEC tube formation = HUVEC tube formation assay on Matrigel; type: cell-based; details: Homo sapiens, 20 h, read-out: inhibition of HUVEC tube formation (total tube length)
HUVEC = experiment: Filipin staining of intracellular cholesterol (NPC phenotype); type: cell-based, human; details: 0.1 μM, 0.2 μM for 24 h in FIG. 14 legend
Protocol: Intracellular cholesterol was visualized using filipin staining and fluorescent images were captured under a confocal microscope.
(§1) We thus determined whether compound 248 shared the same mechanism with itraconazole. The intracellular cholesterol was detected using the cholesterol-binding fluorescent dye filipin. […] It is known that AMPK activation leads to mTOR inhibition.
Filipin staining. 2000 HUVECs were plated in chamber slide with 1 ml media and allowed to settle overnight. cCells were treated with 0.1 uM drug or DMSO for 14 hours. The the cells were fixed with 4% paraformaldehyde for 15 min. After washed, cells were incubated with 500 ul 50 ug/ml filipin solution for 1 hour in the dark. Then the cells were washed twice with PBS, mounted and covered with coverslip. The images were taken using confocal microscope under 360/460 nm.

CYP3A4 [1] = target: T1, CYP3A4 (Homo sapiens, UniProt P08684); experiment: CYP3A4 enzyme assay (Vivid CYP3A4 Green Screening Kit); type: in vitro ADME; details: % enzyme inhibition at 1 μM drug / % enzyme inhibition at 1 μM itraconazole
T1 construct: purchased ThermoFisher P2857; host or cells: baculosomes
T1 sequence (P08684 whole entry): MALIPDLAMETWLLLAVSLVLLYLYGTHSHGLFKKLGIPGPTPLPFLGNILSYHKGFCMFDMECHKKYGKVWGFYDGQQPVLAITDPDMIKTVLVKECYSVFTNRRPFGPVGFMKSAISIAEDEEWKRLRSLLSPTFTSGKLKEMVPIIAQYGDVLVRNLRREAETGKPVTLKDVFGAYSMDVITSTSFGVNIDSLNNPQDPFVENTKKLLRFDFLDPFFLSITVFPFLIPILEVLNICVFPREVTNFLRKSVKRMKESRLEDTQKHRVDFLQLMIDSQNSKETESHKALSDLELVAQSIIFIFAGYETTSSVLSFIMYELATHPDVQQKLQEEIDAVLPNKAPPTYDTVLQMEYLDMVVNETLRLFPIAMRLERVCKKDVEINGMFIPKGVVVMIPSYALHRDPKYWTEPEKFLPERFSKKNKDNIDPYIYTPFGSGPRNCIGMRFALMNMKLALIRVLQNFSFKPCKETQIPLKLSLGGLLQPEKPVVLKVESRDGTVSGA
Protocol: And CYP3A4 inhibition was initially determined using a cell-free fluorescence-based assay at a final concentration of 1 μM (Table 7).
CYP3A4 enzyme assay. CYP3A4 enzyme activity was tested using Vivid™ CYP3A4 Green Screening Kit (ThermoFisher, #P2857) using the manufacturer's protocol. Briefly, CYP3A4 baculosomes and drugs were incubated 10 min at 37° C. Then Vivid® Substrates were added and the fluorescence (ex/em:485/520) were read every 1 min for 60 minute.

[2] = test system: AMPKα, ACC1, mTOR, p70 S6 Kinase phosphorylation; experiment: Western blot of AMPK/mTOR signaling in HUVEC; type: cell-based, human; details: 24 h
Protocol: Cell lysates were subjected to Western blot.
as §1
Western blot. […] Then cells were lysed using RIPA buffer and the protein concentration were measured and normalized. After electrophoresis and transfer onto 0.45 um nitrocellulose membranes, the membranes were bolted with 5% BSA for 1 h and then incubated overnight at 4° C. Secondary antibody was applied to each membrane for 1 hour. Bolts were imaged using Syngene PXi imaging system after adding chemiluminescent substrate. The following antibodies were used for the assay: AMPKα (1:1,000, cell signaling, #2532s), phosphor-AMPKα (1:1,000, cell signaling #2535s), ACC (1:1,000, cell signaling #3662s), phosphor-ACC (1:1,000, cell signaling, #3661s), mTOR (1:1,000, cell signaling, #2972S), phosphor-mTOR (1:1,000, cell signaling, #9234s), p70 S6 Kinase (1:1,000, senta cruz, #sc-8418), phosphor-p70 S6 Kinase (1:1,000, cell signaling, #3662s), anti-Rabbit IgG (1:10000, GE lifesciences, #NA934V).

CYP3A4 [3] = target: T1, CYP3A4; experiment: CYP3A4 enzyme assay (Vivid CYP3A4 Green Screening Kit); type: in vitro ADME; details: dose response, FIG. 12; read-out: CYP3A4 inhibition IC50

SMILES: CCC(C)n1ncn(-c2ccc(N3CCN(c4ccc(OCC5COC(Cn6cncn6)(c6ccc(Cl)cc6Cl)O5)cc4)CC3)cc2)c1=O (stereo not drawn) [Itraconazole, reference compound]
Glycosylation (2 μM dose) (VEGFR2): ++ | Gli I Inhibition (IC90 Prolif. dose) (Gli1 transcript; Gli1 transcript fold induction score, MB cells exposed 24 h at the IC90 for MB proliferation): ++ (≤0.15) | inhibition of Gli1 transcript levels (Gli1 transcript; established MB cultures, FIG. 9B): Dose-dependent inhibition | inhibition at 5 µM (HUVEC tube formation): 45% | NPC phenotype (cholesterol accumulation in late endosome/lysosome) (HUVEC): induce NPC phenotype

CYP3A4 Inhibition (compared to intracozanole at 1 μm) (CYP3A4 [1]): 0.02 | IC50 (CYP3A4 [3]): > 20 µM
SMILES: CCC(C)n1ncn(-c2ccc(N3CCN(c4ccc(OC[C@@H]5CO[C@@](Cn6cnnn6)(c6ccc(Cl)cc6Cl)O5)cc4)CC3)cc2)c1=O (stereo partly drawn) [Compound 248, 4-(4=(4-(4-(((2S,4R)-2-((1H-tetrazol-1-yl)methyl)-2-(2,4-dichlorophenyl)-1,3-dioxolan-4-yl)methoxy)phenyl)piperazin-1-yl)phenyl)-1-sec-butyl-1H-1,2,4-triazol-5(4H)-one]
NPC phenotype (cholesterol accumulation in late endosome/lysosome) (HUVEC): induced NPC phenotype | phosphorylation of AMPKα at Thr172 ([2]; 0.01-1 μM, dose-dependent): increased | phosphorylation of acetyl CoA carboxylase 1 (ACC1) [2]: increased | phosphorylation of mTOR [2]: decrease | phosphorylation of p70 S6 Kinase (S6K) [2]: decrease

From patent US11028078B2 (The Johns Hopkins University, priority 2011, dated 2021)
